Measurements from US20210308034A1, “PREBIOTIC COMPOSITIONS AND METHODS FOR MAINTAINING A HEALTHY SKIN MICROBIOTA” (KIMBERLY-CLARK WORLDWIDE, INC., priority 2018, published 2021).

Assays:
Format in all cases: cell-based
[1] = tested on: Corynebacterium jeikum (ATCC 33033); assay: Carbohydrate Screening Test Method (Biolog phenotype microarray), Bacteria Code B; settings: Commensal; carbon microarray plate, OD 600 nm, 36 hr, 33° C.; positive = more than 0.05 OD units above zero; blank cell = not utilized
Summary of the method: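 Strain from M9*2 agar was suspended in M9*1 medium, washed and inoculated into Biolog PM1/PM2 carbon plates. Carbohydrate use was scored yes/no, and growth rate and maximum yield were derived with GrowthRates 2.1, with max yields used for commensal ratios.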

[2] = tested on: Micrococcus luteus (ATCC 49732); assay: Carbohydrate Screening Test Method (Biolog phenotype microarray), Bacteria Code D; settings: Commensal; carbon microarray plate, OD 600 nm, 36 hr, 33° C.; positive = more than 0.05 OD units above zero; blank cell = not utilized
From the text: (§1) After creating desired ratios of various commensal skin bacteria in a healthy skin microbiome, 188 different carbohydrate sources were screened as the next step in determining potential prospects for skin microbiota balancing agents. The screening process was set up to determine which carbohydrate sources promoted commensal and/or pathogenic bacteria as well as to obtain individual and combinations of carbohydrate sources that could serve as microbiota balancing agents that can support or maintain the healthy proportions of commensal skin bacteria of Corynebacterium, Staphylococcus, and Micrococcus. The screening was conducted utilizing Biolog phenotype microarray plates (Hayward, Calif.). Table 1 provides a coded list of the commensal and pathogenic skin bacteria that the carbohydrates were screened against.
(§2) Table 2 provides the results of screening various carbohydrate sources against the commensal and pathogenic bacteria codes listed in Table 1. The Bacteria Codes B, D, E, I, and J are commensal bacteria and are shaded in Table 2 for references purposes. The bacteria codes were each placed in a carbon microarray plate and screened through the Carbohydrate Screening Test Method, as described in the Test Methods section herein. If a particular bacteria code utilized a specific carbohydrate source as described in the Carbohydrate Screening Test Method, then the corresponding cell in Table 2 was marked with a Y (short for “Yes”). […] Many of the carbohydrate sources were utilized by both commensal and pathogenic bacteria, and as such, would not provide an advantage for selective growth of the commensal bacteria. However, some of the carbohydrate sources were only used by commensal bacteria and were identified for further testing as described herein.
(§3) The study employed 10 representative skin bacteria; Staphylococcus epidermidis ATCC 14990, Staphylococcus epidermidis M23864:W2, Staphylococcus aureus ATCC 6538, Staphylococcus aureus ATCC 25904 (Newman), Pseudomonas aeruginosa ATCC 9027, Micrococcus luteus ATCC […], Micrococcus luteus SK58, Klebsiella pneumoniae ATCC BAA-2146, Corynebacterium amycolatum SK46, and Corynebacterium minutissimum ATCC 23348. Cultures were started from freezer bead stocks by placing a single bead into 20 mL of tryptic soy broth (TSB) for all organisms except C. amycolatum SK46 and C. minutissimum ATCC 23348, which were placed into brain heart infusion (BHI) broth. Cultures were grown for about 24 hr at 37° C. except M. luteus ATCC 49732 and M. luteus SK58, which were grown at 30° C. A passage of the culture was made using a sterile swab and streaked onto two M9*2 agar plates to prepare the incubated culture for the phenotype microarray pate according to Table 4. Plates were incubated for about 24 hr at 37° C. except for M. luteus ATCC 49732 and M. luteus SK58, which were incubated at 30° C. for 24 hr.
(§4) All cultures were harvested and washed before inoculation into the carbon microarray plate (BiOLOG, Hayward Calif.), with Biolog Plates PM1 and PM2 each having a source definition of Carbon. The bacteria on the M9*2 agar was suspended via agitation with an inoculating loop in 1 mL of M9*1 media for collection in a 1.7 mL micro centrifuge tube, as noted in Table 4. The bacteria was suspended again in M9*1 media, agitated, and collected into the same 1.7 mL microcentrifuge tube used in the previous step. The tube was centrifuged for 5 minutes at 4,000×G, supernatant decanted, the pellet was resuspended in 1 mL of M9*1 media, and vortex. This washing process was repeated for a total of 4 times.
(§5) A tenfold dilution in M9*1 media was performed using 1 mL of the washed bacterial culture. Of the tenfold dilution 200 μL was placed in an untreated 96-well plate (Falcon, Pasadena Tx.) for an initial optical density (OD) reading at a wavelength of 600 nm. The OD was used to correlate to colony forming units (CFU) per milliliter by using linear regression lines for each organism. […]

[3] = tested on: Micrococcus luteus (SK58); assay: Carbohydrate Screening Test Method (Biolog phenotype microarray), Bacteria Code E; settings: Commensal; carbon microarray plate, OD 600 nm, 36 hr, 33° C.; positive = more than 0.05 OD units above zero; blank cell = not utilized
Summary of the method: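 Each commensal strain grown in Biolog carbon phenotype microarray plates with single carbohydrate sources. Growth curves fitted with GrowthRates 2.1 to give growth rate and maximum yield. Max yields used to calculate predicted co-culture ratios between Corynebacterium, Staphylococcus and Micrococcus, compared with desired ratios of 1.3, 1.4 and 1.1.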

[4] = tested on: Staphylococcus epidermidis (M23864:W2); assay: Carbohydrate Screening Test Method (Biolog phenotype microarray), Bacteria Code J; settings: Commensal; carbon microarray plate, OD 600 nm, 36 hr, 33° C.; positive = more than 0.05 OD units above zero; blank cell = not utilized
[5] = tested on: Staphylococcus epidermidis (ATCC 14990); assay: Carbohydrate Screening Test Method (Biolog phenotype microarray), Bacteria Code I; settings: Commensal; carbon microarray plate, OD 600 nm, 36 hr, 33° C.; positive = more than 0.05 OD units above zero; blank cell = not utilized
From the text: as §1, §2, §3, §4, §5

[6] = tested on: Pseudomonas aeruginosa (ATCC 9027); settings: Pathogenic; carbon microarray plate, OD 600 nm, 36 hr, 33° C.; positive = more than 0.05 OD units above zero; blank cell = not utilized
Summary of the method: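 Carbon-source utilisation screen on Biolog PM1/PM2 plates: strain grown in TSB then on M9*2 agar, each ~24 h at 37 °C, washed four times in M9*1 and diluted tenfold. OD600 correlated to CFU/mL; each carbohydrate scored Yes when utilised.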

[7] = tested on: Klebsiella pneumoniae (ATCC BAA-2146); settings: Pathogenic; carbon microarray plate, OD 600 nm, 36 hr, 33° C.; positive = more than 0.05 OD units above zero; blank cell = not utilized

Compound	Carbohydrate Screening Results, Bacteria Code D [2]	Carbohydrate Screening Results, Bacteria Code J [4]	Carbohydrate Screening Results, Bacteria Code I [5]	also measured
NCCO [2-Aminoethanol]	Y			Carbohydrate Screening Results, Bacteria Code B [1]: Y; Carbohydrate Screening Results, Bacteria Code E [3]: Y
O=C(O)c1ccc(O)cc1 [4-Hydroxy Benzoic Acid]	Y			
N#C[C@H](O[C@@H]1O[C@H](CO[C@@H]2O[C@H](CO)[C@@H](O)[C@H](O)[C@H]2O)[C@@H](O)[C@H](O)[C@H]1O)c1ccccc1 [Amygdalin]	Y	Y		
C/C(=C/C(=O)O)C(=O)O [Citraconic Acid]	Y	Y	Y	
O=C[C@@H](O)[C@H](O)[C@H](O)CO [D-Arabinose]	Y			
O=C[C@H](O)[C@@H](O)[C@@H](O)[C@H](O)C(=O)O [D-Galacturonic Acid]	Y			Carbohydrate Screening Results, Bacteria Code B [1]: Y; Carbohydrate Screening Results, Bacteria Code E [3]: Y
OC[C@H]1O[C@@](CO)(O[C@H]2O[C@H](CO)[C@@H](O)[C@H](O)[C@H]2O)[C@@H](O[C@H]2O[C@H](CO)[C@@H](O)[C@H](O)[C@H]2O)[C@@H]1O [D-Melezitose]	Y		Y	
O=C1O[C@H](CO)[C@@H](O)[C@H]1O [D-Ribono-1,4-Lactone]	Y			
C[C@H](N)C(N)=O [L-Alaninamide]	Y	Y		
N=C(N)NCCC[C@H](N)C(=O)O [L-Arginine]	Y			Carbohydrate Screening Results, Bacteria Code F [6]: Y
CC(C)C[C@H](N)C(=O)O [L-Leucine]	Y			
O=C(CO)[C@@H](O)[C@H](O)[C@@H](O)CO [L-Sorbose]	Y			Carbohydrate Screening Results, Bacteria Code C [7]: Y; Carbohydrate Screening Results, Bacteria Code F [6]: Y
OC[C@@H](O)[C@@H](O[C@@H]1O[C@H](CO)[C@H](O)[C@H](O)[C@H]1O)[C@H](O)[C@@H](O)CO [Lactitol]		Y	Y	Carbohydrate Screening Results, Bacteria Code C [7]: Y
O=C(O)CC(=O)O [Malonic Acid]	Y			Carbohydrate Screening Results, Bacteria Code C [7]: Y; Carbohydrate Screening Results, Bacteria Code F [6]: Y
CC(=O)N[C@H]1C(O)O[C@H](CO)[C@H](O)[C@@H]1O (stereo partly drawn) [N-Acetyl-D-Galactosamine]	Y			
CC(=O)N[C@@H](CCC(=O)O)C(=O)O [N-Acetyl-L-Glutamic Acid]	Y			Carbohydrate Screening Results, Bacteria Code F [6]: Y
O=C(O)C(=O)C(C(=O)O)C(O)C(=O)O (stereo not drawn) [Oxalomalic Acid]	Y	Y		
OC[C@H]1O[C@H](OC[C@H]2OC(O)(CO)[C@@H](O)[C@@H]2O)[C@H](O)[C@@H](O)[C@@H]1O (stereo partly drawn) [Palatinose]		Y	Y	Carbohydrate Screening Results, Bacteria Code C [7]: Y; Carbohydrate Screening Results, Bacteria Code F [6]: Y
NCCCCN [Putrescine]		Y	Y	Carbohydrate Screening Results, Bacteria Code C [7]: Y
CC(=O)C(=O)O [Pyruvic Acid]	Y	Y	Y	Carbohydrate Screening Results, Bacteria Code B [1]: Y; Carbohydrate Screening Results, Bacteria Code F [6]: Y
OCc1ccccc1O[C@@H]1O[C@H](CO)[C@@H](O)[C@H](O)[C@H]1O [Salicin]	Y			Carbohydrate Screening Results, Bacteria Code C [7]: Y; Carbohydrate Screening Results, Bacteria Code F [6]: Y
OC[C@H]1O[C@H](OC[C@H]2O[C@H](OC[C@H]3O[C@H](O[C@]4(CO)O[C@H](CO)[C@@H](O)[C@@H]4O)[C@H](O)[C@@H](O)[C@@H]3O)[C@H](O)[C@@H](O)[C@H]2O)[C@H](O)[C@@H](O)[C@H]1O [Stachyose]	Y			Carbohydrate Screening Results, Bacteria Code C [7]: Y; Carbohydrate Screening Results, Bacteria Code F [6]: Y
NC(=O)CCC(=O)O [Succinamic Acid]	Y		Y	
O=c1ccn([C@@H]2O[C@H](CO)[C@@H](O)[C@H]2O)c(=O)[nH]1 [Uridine]	Y			Carbohydrate Screening Results, Bacteria Code B [1]: Y; Carbohydrate Screening Results, Bacteria Code C [7]: Y
OC[C@H]1O[C@@H](O[C@H]2[C@H](O)[C@@H](O)[C@@H](O)O[C@@H]2CO)[C@H](O)[C@@H](O)[C@H]1O [α-D-Lactose]		Y	Y	Carbohydrate Screening Results, Bacteria Code B [1]: Y; Carbohydrate Screening Results, Bacteria Code E [3]: Y
COC1OC(CO)C(O)C(O)C1O [α-Methyl-D-Mannoside]	Y			
OC[C@H]1O[C@@H]2O[C@H]3[C@H](O)[C@@H](O)[C@@H](O[C@H]4[C@H](O)[C@@H](O)[C@@H](O[C@H]5[C@H](O)[C@@H](O)[C@@H](O[C@H]6[C@H](O)[C@@H](O)[C@@H](O[C@H]7[C@H](O)[C@@H](O)[C@@H](O[C@H]8[C@H](O)[C@@H](O)[C@@H](O[C@H]1[C@H](O)[C@H]2O)O[C@@H]8CO)O[C@@H]7CO)O[C@@H]6CO)O[C@@H]5CO)O[C@@H]4CO)O[C@@H]3CO [β-Cyclodextrin]	Y	Y	Y	
Chondroitin Sulfate C	Y			
Gelatin	Y	Y		
